The values that follow come from US20250099684A1, “HYDROGEN PEROXIDE SOLUTION-PREFILLED SYRINGE WITH EXCELLENT HYDROGEN PEROXIDE PRESERVATION DUE TO SILICONE OIL INCLUDED IN OIL COMPOSITION” (KORTUC Inc., priority 2019, published 2025).

Molecules are shown by their SMILES. Like-named read-outs stand apart in the source and are kept apart here.

The conditions of the series: sealed, stored at 60° C. for 4 weeks, Oxydol "KENEI" 2.5 to 3.5% (w/v) hydrogen peroxide.

On to `OO` [hydrogen peroxide], for which the “residual ratio of hydrogen peroxide” value is no less than 78% (glass container coated with the silicone oil (Dow Corning 360 Medical Fluid, 12,500 cSt)) and “about 70%” (glass container not coated with the silicone oil).
